{
  "source": "patent US20210002623A1",
  "about": "“AMINOPEPTIDASE AND ITS USES” (Centre national de la recherche scientifique, priority 2017, published 2021)",
  "key": {"MjTET [1]": {"target": "T1, MjTET (Methanocaldococcus jannaschii, UniProt Q57975)", "T1 construct": "made in house; host or cells: Escherichia coli ArcticExpress (DE3)-RIL", "T1 sequence (Q57975 1-350)": "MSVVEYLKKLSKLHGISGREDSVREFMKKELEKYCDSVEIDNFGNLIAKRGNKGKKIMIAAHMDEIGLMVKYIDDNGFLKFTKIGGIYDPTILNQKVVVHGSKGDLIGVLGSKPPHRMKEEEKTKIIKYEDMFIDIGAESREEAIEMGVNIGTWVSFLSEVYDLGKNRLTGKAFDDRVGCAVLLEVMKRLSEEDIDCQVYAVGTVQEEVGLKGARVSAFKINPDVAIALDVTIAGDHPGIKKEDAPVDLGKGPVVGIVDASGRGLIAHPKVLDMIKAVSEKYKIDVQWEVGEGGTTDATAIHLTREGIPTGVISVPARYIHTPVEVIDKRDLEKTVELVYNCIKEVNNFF", "test": "Effect of inhibitors on MjTET activity (Leu-pNA hydrolysis)", "type": "biochemical", "details": "5 mM Leu-pNA, 0.1 mM CoCl2, pH 8.5, 85° C., 5 min", "description": "The inhibitory effect of EDTA, Amastatine and Bestatine was tested on the MjTET enzymatic activity. 4 μg/mL of MjTET were incubated with each inhibitor separately in the presence of 5 mM Leu-pNA, 50 mM CHES, 150 mM KCl, 0.1 mM CoCl2, pH 8.5 at 85° C. for 5 min. Three replicates (with inhibitor) and two controls (without inhibitor) were assayed for each experimental point."}, "MjTET [2]": {"target": "T1, MjTET", "test": "Effect of metal cations on MjTET activity", "type": "biochemical", "details": "5 mM Leu-pNA, pH 8.5, 75° C., 5 min", "description": "The metal cations XCl2 were incubated at 0.1 mM concentration with 4 μg/mL of MjTET and 5 mM of Leu-pNA in 50 mM CHES, 150 mM KCl, pH 8.5 for 5 min at 75° C. To assess the effect of metal cations on MjTET activity, the enzymatic reaction was followed as described before."}},
  "data": [
    {"compound": "CC(C)C[C@@H](N)[C@H](O)C(=O)N[C@H](C(=O)N[C@H](C(=O)N[C@@H](CC(=O)O)C(=O)O)C(C)C)C(C)C", "note": "[amastatine]", "values": [
      {"measurement": "inhibition of MjTET LAP activity", "setting": "MjTET [1]; 0.2 mM amastatine", "value": "completely inhibited"}
    ]},
    {"compound": "CC(C)C[C@H](NC(=O)[C@@H](O)[C@H](N)Cc1ccccc1)C(=O)O", "note": "[bestatine]", "values": [
      {"measurement": "inhibition of MjTET LAP activity", "setting": "MjTET [1]; 1 mM bestatine", "value": "completely inhibited"}
    ]},
    {"compound": "[Cl-].[Cl-].[Zn+2]", "note": "[ZnCl2]", "values": [
      {"measurement": "effect on MjTET LAP activity", "setting": "MjTET [2]; 0.1 mM ZnCl2", "value": "significant inhibition"}
    ]},
    {"compound": "[Cl-].[Cl-].[Co+2]", "note": "[cobalt ions]", "values": [
      {"measurement": "effect on MjTET LAP activity", "setting": "MjTET [2]; 0.1 mM metal cation", "value": "increase of LAP activity"}
    ]},
    {"compound": "O=C(O)CN(CCN(CC(=O)O)CC(=O)O)CC(=O)O", "note": "[EDTA]", "values": [
      {"measurement": "inhibition of MjTET enzymatic activity", "setting": "MjTET [1]; 5 mM EDTA", "value": "completely inhibited"}
    ]}
  ]
}
